From PubChem BioAssay (NCI)
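48-hour exposure; five concentrations; linearly interpolated endpoints. TGI: total growth inhibition.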

Experiments:
Assay in all cases: DTP human tumour cell line panel, 48 h
A498 renal = tested on: A498 renal
A549 NSCLC = tested on: A549 NSCLC
ACHN renal = tested on: ACHN renal
CCRF-CEM leukemia = tested on: CCRF-CEM leukemia
COLO 205 colon = tested on: COLO 205 colon
DU-145 prostate = tested on: DU-145 prostate
EKVX NSCLC = tested on: EKVX NSCLC
HCT-116 colon = tested on: HCT-116 colon
HCT-15 colon = tested on: HCT-15 colon
HL-60(TB) leukemia = tested on: HL-60(TB) leukemia
HT29 colon = tested on: HT29 colon
IGROV1 ovarian = tested on: IGROV1 ovarian
K-562 leukemia = tested on: K-562 leukemia
KM12 colon = tested on: KM12 colon
LOX IMVI melanoma = tested on: LOX IMVI melanoma
M14 melanoma = tested on: M14 melanoma
MALME-3M melanoma = tested on: MALME-3M melanoma
MCF7 breast = tested on: MCF7 breast
MDA-MB-231 breast = tested on: MDA-MB-231 breast
MDA-MB-435 = tested on: MDA-MB-435
MDA-N = tested on: MDA-N
MOLT-4 leukemia = tested on: MOLT-4 leukemia
NCI-H226 lung = tested on: NCI-H226 lung
NCI-H23 lung = tested on: NCI-H23 lung
NCI-H460 lung = tested on: NCI-H460 lung
NCI-H522 lung = tested on: NCI-H522 lung
NCI/ADR-RES ovarian = tested on: NCI/ADR-RES ovarian
OVCAR-3 ovarian = tested on: OVCAR-3 ovarian
OVCAR-4 ovarian = tested on: OVCAR-4 ovarian
OVCAR-5 ovarian = tested on: OVCAR-5 ovarian
OVCAR-8 ovarian = tested on: OVCAR-8 ovarian
PC-3 prostate = tested on: PC-3 prostate
RPMI-8226 leukemia = tested on: RPMI-8226 leukemia
RXF 393 renal = tested on: RXF 393 renal
SF-268 CNS = tested on: SF-268 CNS
SF-295 CNS = tested on: SF-295 CNS
SF-539 CNS = tested on: SF-539 CNS
SK-MEL-2 melanoma = tested on: SK-MEL-2 melanoma
SK-MEL-28 melanoma = tested on: SK-MEL-28 melanoma
SK-MEL-5 melanoma = tested on: SK-MEL-5 melanoma
SK-OV-3 ovarian = tested on: SK-OV-3 ovarian
SN12C renal = tested on: SN12C renal
SNB-19 CNS = tested on: SNB-19 CNS
SNB-75 CNS = tested on: SNB-75 CNS
SR leukemia = tested on: SR leukemia
SW-620 colon = tested on: SW-620 colon
T-47D breast = tested on: T-47D breast
TK-10 renal = tested on: TK-10 renal
U251 CNS = tested on: U251 CNS
UACC-257 melanoma = tested on: UACC-257 melanoma
UACC-62 melanoma = tested on: UACC-62 melanoma
UO-31 renal = tested on: UO-31 renal
786-0 renal = tested on: 786-0 renal
CAKI-1 renal = tested on: CAKI-1 renal
HOP-62 NSCLC = tested on: HOP-62 NSCLC
HOP-92 NSCLC = tested on: HOP-92 NSCLC
HS 578T breast = tested on: HS 578T breast

`COC1=CC(=O)c2c(cc(COP(N)(=O)N(CCBr)CCBr)n2C)C1=O` (stereo not drawn) gave a TGI (A498 renal) of 2.88 µM, a TGI (A549 NSCLC) of 1.71 µM and a TGI (ACHN renal) of 0.0219 µM. It also gave a TGI (CCRF-CEM leukemia) of 0.771 µM, a TGI (COLO 205 colon) of 0.144 µM and a TGI (DU-145 prostate) of 1.41 µM. The TGI (EKVX NSCLC) was 0.207 µM, the TGI (HCT-116 colon) was 0.131 µM and the TGI (HCT-15 colon) was 2.5 µM. For the same compound, the TGI (HL-60(TB) leukemia) was 3.64 µM, the TGI (HT29 colon) was 1.05 µM and the TGI (IGROV1 ovarian) was 2.8 µM. For the same compound, the TGI (K-562 leukemia) was > 100 µM, the TGI (KM12 colon) was 4.72 µM and the TGI (LOX IMVI melanoma) was 0.121 µM. The TGI (M14 melanoma) was 0.633 µM, the TGI (MALME-3M melanoma) was 1.86 µM and the TGI (MCF7 breast) was 16.1 µM. It also gave a TGI (MDA-MB-231 breast) of 7.1 µM, a TGI (MDA-MB-435) of 2.42 µM and a TGI (MDA-N) of 2.24 µM. The TGI (MOLT-4 leukemia) was > 100 µM, the TGI (NCI-H226 lung) was 1.17 µM and the TGI (NCI-H23 lung) was 2.67 µM. The TGI (NCI-H460 lung) was 5.38 µM, the TGI (NCI-H522 lung) was 0.188 µM and the TGI (NCI/ADR-RES ovarian) was 7.86 µM. For the same compound, the TGI (OVCAR-3 ovarian) was 0.651 µM, the TGI (OVCAR-4 ovarian) was 10.5 µM and the TGI (OVCAR-5 ovarian) was 1.06 µM. It also gave a TGI (OVCAR-8 ovarian) of 1.2 µM, a TGI (PC-3 prostate) of 4.62 µM and a TGI (RPMI-8226 leukemia) of 1.16 µM. It also gave a TGI (RXF 393 renal) of 1.49 µM, a TGI (SF-268 CNS) of 1.8 µM and a TGI (SF-295 CNS) of 0.225 µM. It also gave a TGI (SF-539 CNS) of 0.133 µM, a TGI (SK-MEL-2 melanoma) of 3.57 µM and a TGI (SK-MEL-28 melanoma) of 3.1 µM. It also gave a TGI (SK-MEL-5 melanoma) of 2.2 µM, a TGI (SK-OV-3 ovarian) of 1.15 µM and a TGI (SN12C renal) of 1.08 µM. For the same compound, the TGI (SNB-19 CNS) was 8.28 µM, the TGI (SNB-75 CNS) was 1.19 µM and the TGI (SR leukemia) was 1.6 µM. It also gave a TGI (SW-620 colon) of 1.48 µM, a TGI (T-47D breast) of 2.98 µM and a TGI (TK-10 renal) of 3.43 µM. The TGI (U251 CNS) was 0.859 µM, the TGI (UACC-257 melanoma) was 4.44 µM and the TGI (UACC-62 melanoma) was 1.47 µM. It also gave a TGI (UO-31 renal) of 3.66 µM.

For `COc1cc(O)c2c(c1)OCC1(Cc3cc(OC)c(OC)cc31)C2=O` (stereo not drawn), the TGI (786-0 renal) was > 100 µM, the TGI (A498 renal) was > 100 µM and the TGI (A549 NSCLC) was 66.8 µM. The TGI (ACHN renal) was > 100 µM, the TGI (CAKI-1 renal) was > 100 µM and the TGI (CCRF-CEM leukemia) was > 100 µM. For the same compound, the TGI (COLO 205 colon) was > 100 µM, the TGI (DU-145 prostate) was > 100 µM and the TGI (HCT-116 colon) was > 100 µM. For the same compound, the TGI (HCT-15 colon) was > 100 µM, the TGI (HL-60(TB) leukemia) was > 100 µM and the TGI (HOP-62 NSCLC) was > 100 µM. For the same compound, the TGI (HOP-92 NSCLC) was > 100 µM, the TGI (HS 578T breast) was > 100 µM and the TGI (HT29 colon) was > 100 µM. The TGI (IGROV1 ovarian) was > 100 µM, the TGI (K-562 leukemia) was > 100 µM and the TGI (KM12 colon) was > 100 µM. The TGI (LOX IMVI melanoma) was > 100 µM, the TGI (M14 melanoma) was > 100 µM and the TGI (MALME-3M melanoma) was > 100 µM. The TGI (MCF7 breast) was > 100 µM, the TGI (MDA-MB-231 breast) was > 100 µM and the TGI (MDA-MB-435) was > 100 µM. The TGI (MDA-N) was > 100 µM, the TGI (MOLT-4 leukemia) was > 100 µM and the TGI (NCI-H226 lung) was > 100 µM. The TGI (NCI-H23 lung) was > 100 µM, the TGI (NCI-H460 lung) was > 100 µM and the TGI (NCI-H522 lung) was > 100 µM. The TGI (NCI/ADR-RES ovarian) was > 100 µM, the TGI (OVCAR-3 ovarian) was > 100 µM and the TGI (OVCAR-4 ovarian) was > 100 µM. The TGI (OVCAR-5 ovarian) was > 100 µM, the TGI (OVCAR-8 ovarian) was > 100 µM and the TGI (PC-3 prostate) was > 100 µM. The TGI (RPMI-8226 leukemia) was > 100 µM, the TGI (RXF 393 renal) was > 100 µM and the TGI (SF-268 CNS) was > 100 µM. The TGI (SF-295 CNS) was > 100 µM, the TGI (SF-539 CNS) was > 100 µM and the TGI (SK-MEL-2 melanoma) was > 100 µM. The TGI (SK-MEL-28 melanoma) was > 100 µM, the TGI (SK-MEL-5 melanoma) was 26.7 µM and the TGI (SK-OV-3 ovarian) was > 100 µM. For the same compound, the TGI (SN12C renal) was > 100 µM, the TGI (SNB-19 CNS) was > 100 µM and the TGI (SNB-75 CNS) was > 100 µM. For the same compound, the TGI (SR leukemia) was > 100 µM, the TGI (SW-620 colon) was > 100 µM and the TGI (T-47D breast) was 57.2 µM. For the same compound, the TGI (TK-10 renal) was > 100 µM, the TGI (U251 CNS) was > 100 µM and the TGI (UACC-257 melanoma) was > 100 µM. The TGI (UACC-62 melanoma) was > 100 µM and the TGI (UO-31 renal) was > 100 µM.
